What all share (experiment): Kinobeads competition binding, HL60 cell lysate
Common to all, as to set-up: endogenous in cells
Holding throughout (settings): 10 μM free compound

One assay deals with MARK3 (Homo sapiens, UniProt P27448). In a few lines:
(§1)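 Competition readout: iTRAQ reporter-ion peak areas (LC-MS/MS) comparing bead-bound kinase with 10 μM free compound versus 0.5% DMSO. Compound-immobilized Sepharose was incubated with HL60 lysate, 50 mg protein, 2 h, 4 °C, then washed, eluted in SDS buffer and resolved by SDS-PAGE.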

Another assay concerns the target T1, PIP5K2A (Homo sapiens, UniProt P48426).
T1 sequence (P48426 1-406): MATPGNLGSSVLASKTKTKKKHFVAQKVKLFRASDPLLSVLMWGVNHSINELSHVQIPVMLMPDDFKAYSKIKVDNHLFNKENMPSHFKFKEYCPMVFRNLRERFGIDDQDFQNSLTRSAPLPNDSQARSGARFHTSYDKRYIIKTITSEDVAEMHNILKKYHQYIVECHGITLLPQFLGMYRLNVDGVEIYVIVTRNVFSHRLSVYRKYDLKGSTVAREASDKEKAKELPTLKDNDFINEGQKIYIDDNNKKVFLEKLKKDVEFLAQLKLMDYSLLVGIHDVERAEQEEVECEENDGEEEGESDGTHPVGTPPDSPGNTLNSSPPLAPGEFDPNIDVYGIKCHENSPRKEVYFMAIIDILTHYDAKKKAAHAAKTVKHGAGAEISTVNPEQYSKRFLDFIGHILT
In a few lines:
as §1

In the next assay the target is T2, GCK (Homo sapiens, UniProt Q12851).
T2 sequence (Q12851 1-820): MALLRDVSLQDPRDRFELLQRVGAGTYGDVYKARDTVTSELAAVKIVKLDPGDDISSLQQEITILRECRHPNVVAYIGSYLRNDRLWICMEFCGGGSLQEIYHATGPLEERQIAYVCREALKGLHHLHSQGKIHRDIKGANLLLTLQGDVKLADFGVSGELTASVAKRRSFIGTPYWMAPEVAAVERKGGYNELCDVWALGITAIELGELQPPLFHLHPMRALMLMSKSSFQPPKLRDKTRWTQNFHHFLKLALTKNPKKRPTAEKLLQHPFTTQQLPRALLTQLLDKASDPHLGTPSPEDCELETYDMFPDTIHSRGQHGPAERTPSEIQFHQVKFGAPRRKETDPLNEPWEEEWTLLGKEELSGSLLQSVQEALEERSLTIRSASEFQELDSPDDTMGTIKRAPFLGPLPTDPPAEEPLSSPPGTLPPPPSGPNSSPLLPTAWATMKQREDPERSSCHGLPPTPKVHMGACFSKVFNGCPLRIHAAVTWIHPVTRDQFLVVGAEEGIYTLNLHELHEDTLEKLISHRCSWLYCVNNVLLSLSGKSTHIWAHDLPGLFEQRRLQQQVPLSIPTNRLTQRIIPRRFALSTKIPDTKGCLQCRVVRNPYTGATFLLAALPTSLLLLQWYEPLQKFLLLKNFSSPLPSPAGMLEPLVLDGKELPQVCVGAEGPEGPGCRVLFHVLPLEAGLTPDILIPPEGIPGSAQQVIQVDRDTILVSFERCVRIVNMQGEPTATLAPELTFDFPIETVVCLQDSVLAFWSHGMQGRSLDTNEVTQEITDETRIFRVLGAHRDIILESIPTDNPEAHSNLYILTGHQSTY
In a few lines: as §1

Sequence of MARK3 (P27448 whole entry): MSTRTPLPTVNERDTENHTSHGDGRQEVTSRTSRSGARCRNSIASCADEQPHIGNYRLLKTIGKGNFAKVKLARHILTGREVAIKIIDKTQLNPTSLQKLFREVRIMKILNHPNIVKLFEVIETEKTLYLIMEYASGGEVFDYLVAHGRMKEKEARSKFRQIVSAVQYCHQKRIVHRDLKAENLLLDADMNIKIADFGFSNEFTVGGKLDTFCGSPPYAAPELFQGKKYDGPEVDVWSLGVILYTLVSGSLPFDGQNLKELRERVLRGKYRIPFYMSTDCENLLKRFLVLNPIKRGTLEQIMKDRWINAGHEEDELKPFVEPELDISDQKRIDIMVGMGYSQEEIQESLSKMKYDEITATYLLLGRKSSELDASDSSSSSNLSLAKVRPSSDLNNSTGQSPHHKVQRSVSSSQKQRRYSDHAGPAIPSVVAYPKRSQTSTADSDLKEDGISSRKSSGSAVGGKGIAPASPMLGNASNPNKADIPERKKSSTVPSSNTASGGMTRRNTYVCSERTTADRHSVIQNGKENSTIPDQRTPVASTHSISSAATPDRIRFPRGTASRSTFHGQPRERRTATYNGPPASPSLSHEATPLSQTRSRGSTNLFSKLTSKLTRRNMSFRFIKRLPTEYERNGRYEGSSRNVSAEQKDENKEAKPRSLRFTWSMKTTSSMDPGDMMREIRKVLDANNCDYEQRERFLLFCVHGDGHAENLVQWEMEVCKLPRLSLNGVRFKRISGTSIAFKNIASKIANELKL

Regarding `CS(=O)(=O)Nc1ccccc1Nc1nc(Nc2cccc(OCCN)c2)ncc1Cl` [CZC31326, N-(2-(2-(3-(2-aminoethoxy)phenylamino)-5-chloropyrimidin-4-ylamino)phenyl)methanesulfonamide], the inhibition – broadly, how much of the control response was suppressed – at 10 µM was 97.2% at MARK3, 97.6% on PIP5K2A and 96.5% on GCK.

(Values after US20120270237A9, “METHODS FOR THE IDENTIFICATION OF KINASE INTERACTING MOLECULES AND FOR THE PURIFICATION OF KINASE PROTEINS” (Cellzone AG, priority 2009, published 2012).)
